Results published in PMC9780499, “Designing double-site lipidated peptide amphiphiles as potent antimicrobial biomaterials to combat multidrug-resistant bacteria” (Frontiers in Microbiology, 2022).
Converted amounts (≈) assume the structure as drawn.

How the values were obtained:
[1] = tested on: E. coli HP73; experiment: microbe, parasite or virus in culture; format: cell-based, Escherichia coli; conditions: Escherichia coli, HP73; multidrug-resistant, colistin-resistant swine clinical isolate; broth microdilution, MHB, 37°C 20 h; read-out: MICs, E. coli HP73
Excerpt: (§1) Escherichia coli ATCC25922, E. coli UB1005, Pseudomonas aeruginosa ATCC27853, Salmonella typhimurium ATCC14028, S. typhimurium C7731, Staphylococcus aureus ATCC29213, Methicillin-resistant S. aureus (MRSA) ATCC43300, S. epidermidis ATCC12228, and Enterococcus faecalis ATCC29212 were stored by the institute of animal nutrition, Northeast Agricultural University (Harbin, China). Multidrug-Resistant E. coli HP73 and E. coli HP74 were clinically isolated from swine-derived Escherichia coli and stored by the institute of animal nutrition, Northeast Agricultural University (Harbin, China).
(§2) The MICs were determined using a broth microdilution method with reference to Clinical and Laboratory Standards Institute (CLSI) guidelines ([Wiegand et al., 2008]). After a two-fold serial dilution of the peptides (50 μl, dilution buffer: 0.01% acetic acid containing 0.2% BSA) prepared in a 96-well plate, a series of an equal volume of bacterial solution (50 μl) prepared in Mueller-Hinton broth (MHB) were added to the same 96-well plate, and the final bacterial inoculum size in each well of the 96-well plate was approximately 5 × 10^5 CFU/ml. As positive and negative controls, bacteria solution without peptides and blank samples without bacteria were prepared in the same 96-well plate. […] The lowest peptide concentration at which there was no increase in optical density was referred to as the MIC.

[2] = tested on: E. coli HP74; experiment: microbe, parasite or virus in culture; format: cell-based, Escherichia coli; conditions: Escherichia coli, HP74; multidrug-resistant, colistin-resistant swine clinical isolate; broth microdilution, MHB, 37°C 20 h; read-out: MICs, E. coli HP74
Excerpt: as §1, §2

[3] = tested on: IPEC-J2; experiment: MTT cytotoxicity assay; format: cell-based, porcine; conditions: 1 day incubation
Experimental: (§3) 3-(4,5-dimethylthiozol-2-yl)-2,5-diphenyltetrazolium bromide (MTT) assay and live/dead cell staining assay were conducted to assess the peptide cytotoxicity. For the MTT assay, cell lines were seeded and passaged twice in high-glucose Dulbecco’s modified Eagle’s medium (DMEM, containing 100 μg/ml streptomycin, 100 U/ml penicillin, and 10% vol/vol fetal bovine serum) or Dulbecco’s Modified Eagle Medium/Nutrient Mixture F-12 (DMEM/F-12, containing 100 μg/ml streptomycin, 100 U/ml penicillin, and 10% vol/vol fetal bovine serum) at a 5% CO2 incubator (37°C). The cells (approximately 50,000 cells per well) were cultured in a 96-well plate at a 5% CO2 incubator for 1 day. Then various concentrations of peptide solutions (50 μl) were added to the plate and incubated for another 1 day. The cells solution without peptides and blank samples without cells and peptides were prepared in the same 96-well plate as positive and negative controls, respectively. Subsequently, MTT (0.5 mg/ml, 20 μl per well) was added and the plate was incubated for another 4 h. Removed all supernatant from the plate and added 150 μl of dimethyl sulfoxide. Finally, a microplate reader (Tecan GENios F129004, Austria) was used to record the absorbance data at OD570 nm. Melittin was employed as a control peptide. The cell viability was calculated using the previously described equation ([Lai et al., 2021]).

[4] = tested on: HEK293T; experiment: MTT cytotoxicity assay; format: cell-based, human; conditions: 1 day incubation
Experimental: as §3

| Compound | MIC [1] | MIC [2] | Concentration above which significant cytotoxicity toward IPEC-J2 [3] | Concentration above which significant cytotoxicity toward HEK293T [4] |
| --- | --- | --- | --- | --- |
| CC(C)(O/N=C(\C(=O)N[C@@H]1C(=O)N2C(C(=O)[O-])=C(C[n+]3ccccc3)CS[C@H]12)c1csc(N)n1)C(=O)O [Ceftazidime] | 128 µM (≈ 70 µg/mL) | 32 µM (≈ 17.5 µg/mL) | – | – |
| CC[C@H]1OC(=O)[C@H](C)[C@@H](O[C@H]2C[C@@](C)(OC)[C@@H](O)[C@H](C)O2)[C@H](C)[C@@H](O[C@@H]2O[C@H](C)C[C@H](N(C)C)[C@H]2O)[C@](C)(O)C[C@@H](C)C(=O)[C@H](C)[C@@H](O)[C@]1(C)O [Erythromycin] | > 128 µM | > 128 µM | – | – |
| CNC(C)C1CCC(N)C(OC2C(N)CC(N)C(OC3OCC(C)(O)C(NC)C3O)C2O)O1 (centres unmarked) [Gentamicin] | 128 µM (≈ 61.1 µg/mL) | 128 µM (≈ 61.1 µg/mL) | – | – |
| CC[C@H](C)[C@H](NC(=O)CN)C(=O)NCC(=O)N[C@@H](C)C(=O)N[C@H](C(=O)N[C@@H](CC(C)C)C(=O)N[C@@H](CCCCN)C(=O)N[C@H](C(=O)N[C@@H](CC(C)C)C(=O)N[C@H](C(=O)N[C@H](C(=O)NCC(=O)N[C@@H](CC(C)C)C(=O)N1CCC[C@H]1C(=O)N[C@@H](C)C(=O)N[C@@H](CC(C)C)C(=O)N[C@H](C(=O)N[C@@H](CO)C(=O)N[C@@H](Cc1c[nH]c2ccccc12)C(=O)N[C@H](C(=O)N[C@@H](CCCCN)C(=O)N[C@@H](CCCNC(=N)N)C(=O)N[C@@H](CCCCN)C(=O)N[C@@H](CCCNC(=N)N)C(=O)N[C@@H](CCC(N)=O)C(=O)N[C@@H](CCC(N)=O)C(N)=O)[C@@H](C)CC)[C@@H](C)CC)[C@@H](C)O)[C@@H](C)O)C(C)C)C(C)C [Melittin, reference compound] | – | – | > 16 µM | greater than 8 μM |
| CCn1cc(C(=O)O)c(=O)c2cc(F)c(N3CCNCC3)cc21 [Norfloxacin] | > 128 µM | 128 µM (≈ 40.9 µg/mL) | – | – |
| CC1COc2c(N3CCN(C)CC3)c(F)cc3c(=O)c(C(=O)O)cn1c23 (centres unmarked) [Ofloxacin] | > 128 µM | > 128 µM | – | – |
| CO[C@H]1/C=C/O[C@@]2(C)Oc3c(C)c(O)c4c(O)c(c(/C=N/N5CCN(C)CC5)c(O)c4c3C2=O)NC(=O)/C(C)=C\C=C\[C@H](C)[C@H](O)[C@@H](C)[C@@H](O)[C@@H](C)[C@H](OC(C)=O)[C@@H]1C [Rifampicin] | > 128 µM | 16 µM (≈ 13.2 µg/mL) | – | – |
